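All cell lines were grown in 96-well plates and treated with compound for 48 hours. GI50: concentration for 50% inhibition of growth. TGI is the concentration that stops growth completely.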
Assays:
Experiment in all cases: inhibition of tumour cell growth, NCI panel, 48 h
[1] = system: SR leukemia
[2] = system: NCI-H226 lung
[3] = system: HCT-116 colon
[4] = system: MDA-MB-435
[5] = system: OVCAR-5 ovarian
[6] = system: SK-MEL-2 melanoma
[7] = system: SF-295 CNS
[8] = system: DU-145 prostate
[9] = system: RPMI-8226 leukemia
[10] = system: HT29 colon
[11] = system: NCI-H522 lung

Structure (SMILES) | TGI [1] [µM] | TGI [2] [µM] | TGI [3] [µM] | TGI [4] [µM] | TGI [5] [µM] | TGI [6] [µM] | TGI [7] [µM] | TGI [8] [µM] | TGI [9] [µM] | TGI [10] [µM] | TGI [11] [µM] | GI50 [2] [µM] | GI50 [4] [µM] | GI50 [5] [µM] | GI50 [6] [µM] | GI50 [7] [µM] | GI50 [8] [µM] | GI50 [11] [µM] | GI50 [9] [µM] | GI50 [10] [µM]
c1ccc(-c2cc(-c3cccs3)c(-c3cccs3)o2)cc1 | > 100 | > 100 | > 100 | > 100 | > 100 | > 100 | > 100 | > 100 | > 100 | > 100 | – | – | – | – | – | – | – | – | – | –
Cc1nc(C(N)=S)sc1C(=O)C/C(=N/N)C(=O)Nc1ccc(Cl)cc1 | > 100 | > 100 | > 100 | > 100 | > 100 | > 100 | > 100 | – | > 100 | > 100 | > 100 | – | – | – | – | – | – | – | – | –
CCc1nc2ccc(C(F)(F)F)cc2[nH]c1=O | – | > 100 | > 100 | > 100 | > 100 | > 100 | > 100 | > 100 | > 100 | > 100 | – | – | – | – | – | – | – | – | – | –
CC(C)C(=O)/C=C/c1ccc(Cl)c(Cl)c1 | 56.8 | – | 15.2 | – | 36.8 | 31.9 | 29.4 | – | 87 | 43.8 | 35.1 | – | – | – | – | – | – | – | – | –
CC[C@@]12C=CC(=S)N(CCSc3ccccc3)[C@@H]1c1c(n(S(=O)(=O)c3ccc(OC)cc3)c3ccccc13)CC2 | – | – | > 100 | > 100 | > 100 | > 100 | > 100 | > 100 | – | > 100 | > 100 | – | – | – | – | – | – | – | – | –
O=[N+]([O-])c1ccc(Cl)cc1N/N=C/c1cccc2cccnc12 | 38 | – | > 100 | > 100 | – | – | > 100 | > 100 | > 100 | > 100 | > 100 | – | – | – | – | – | – | – | – | –
C(=C\c1cc(-c2ccc3ccccc3n2)nc2ccc3ccccc3c12)/c1ccc2ccccc2n1 | > 100 | > 100 | > 100 | > 100 | > 100 | – | > 100 | > 100 | > 100 | > 100 | – | – | – | – | – | – | – | – | – | –
CCOC(=O)CSc1[nH]c(NC(=S)Nc2ccccc2)c(C(N)=O)c1C(N)=O | > 10 | – | – | > 10 | – | – | > 10 | > 10 | > 10 | > 10 | – | – | – | – | – | – | – | – | – | –
C=C(C)[C@@H]1CCC2=C[C@H](CC(C)=CC3=CC(C)=C(O3)[C@@H]1OC)OC2=O | > 100 | > 100 | – | > 100 | > 100 | 52.7 | 70.5 | > 100 | > 100 | – | > 100 | – | – | – | – | – | – | – | – | –
CCOP(=O)(OCC)C1=NC=CC=CC1n1c(-c2ccccc2)nn(CC)c1=O (configuration not stated) | > 100 | > 100 | > 100 | – | – | > 100 | > 100 | – | > 100 | > 100 | > 100 | – | – | – | – | – | – | – | – | –
CCN1CCC(O)(c2ccc(Oc3ccc(C)cc3)cc2)C(C(=O)c2ccc(Oc3ccc(C)cc3)cc2)C1 (configuration not stated) | – | 27.9 | 19 | 24.9 | 32.1 | 35.9 | 21.4 | 20.1 | 4.26 | 14.2 | – | – | – | – | – | – | – | – | – | –
Oc1ccc(C#CCOc2ccccc2)cc1CNCCN(Cc1ccccn1)Cc1ccccn1 | – | 3.1 | – | 3.44 | 3.72 | 4.85 | 1.89 | 2.95 | 6.2 | 12.6 | 6.67 | 1.34 | 1.82 | 1.18 | 2.08 | 0.552 | 1.08 | 2.07 | 1.53 | 2.54
C=CCN(c1cc(OC)c2[nH]cc(C)c2c1[N+](=O)[O-])S(C)(=O)=O | > 100 | > 100 | > 100 | > 100 | > 100 | > 100 | > 100 | > 100 | > 100 | – | > 100 | – | – | – | – | – | – | – | – | –
Oc1cccc(-c2cn3cc(C(F)(F)F)ccc3n2)c1 | > 100 | > 100 | > 100 | > 100 | > 100 | > 100 | 94 | 72.5 | – | 60.8 | 35.4 | – | – | – | – | – | – | – | – | –
CC(=O)/C=C(\O)c1[nH]c(C(=O)O)cc1C1CCN(Cc2ccccc2)C1=O (configuration not stated) | – | – | 61.7 | > 100 | 80.2 | 54.9 | 48.7 | 59.2 | 49 | 89 | 49.7 | – | – | – | – | – | – | – | – | –
COc1ccccc1NC(=O)O/N=C(/Cl)C(C)C | 4.73 | 41.5 | 29.3 | – | 35.8 | 31 | 29.1 | 33.2 | 4.71 | 15.3 | 3.37 | – | – | – | – | – | – | – | – | –
O=C1C(NCCN2CCOCC2)=C(Cl)C(=O)c2ncccc21 | 3.3 | 3.64 | 1.14 | 0.343 | 3.18 | 1.11 | 2.77 | 2.17 | 0.377 | 2.95 | – | – | – | – | – | – | – | – | – | –
CC1(C)CC2(C)CC1CC2NC(=O)CCN1CCOCC1 (configuration not stated) | > 100 | > 100 | > 100 | > 100 | > 100 | – | > 100 | > 100 | – | > 100 | > 100 | – | – | – | – | – | – | – | – | –
COc1cc(C2c3cc4c(cc3[C@@H](Nc3cccc([N+](=O)[O-])c3)C3COC(=O)[C@H]23)OCO4)cc(OC)c1O (some centres not stated) | – | 7.94 | 21.6 | – | > 100 | 36.5 | 4.94 | – | 32.1 | 13.1 | 11.7 | – | – | – | – | – | – | – | – | –
CCN(CC)CCCC(C)NC(=O)c1ccc2c(c1)C(=O)c1ccccc1C2=O (configuration not stated) | 78.1 | 49 | 51.7 | – | 34.2 | 38.9 | 45.8 | – | 52.4 | 53 | 37.4 | – | – | – | – | – | – | – | – | –
O=C1CCCC2=C1CC1=C(CCCC1=O)N2c1ccccc1 | > 100 | > 100 | – | – | > 100 | – | – | – | > 100 | > 100 | – | – | – | – | – | – | – | – | – | –
CC(C)(C)c1ccc(C(C)(C)C)c(N2C(=O)C3ON=C(c4ccc([N+](=O)[O-])cc4)C3C2=O)c1 (configuration not stated) | > 25 | > 25 | > 25 | > 25 | > 25 | – | > 25 | > 25 | > 25 | > 25 | > 25 | – | – | – | – | – | – | – | – | –

From PubChem BioAssay (NCI)
